From patent US20090275567A1, “2-HETEROCYCLOAMINO-4-IMIDAZOLYLPYRIMIDINES AS AGENTS FOR THE INHIBITION OF CELL PROLIFERATION” (priority 2006, published 2009) come the findings set out here.

The target in this assay is T1, CDK2/Cyclin E (Homo sapiens, UniProt P24941).
T1 construct: made in house; host or cells: Sf21 (Spodoptera frugiperda) insect cells, baculovirus co-infection; the GST-Rb substrate was made in E. coli BL21 (DE3) pLysS
Put plainly: in vitro kinase assay (Scintillation Proximity Assay), CDK2/Cyclin E, GST-Rb substrate. The class given is biochemical. The following applies: CDK2/Cyclin E partially-purified enzyme, 0.2 μM ATP, read-out: CDK2 inhibitory activity IC50. The procedure: The compounds were tested in an in vitro kinase assay in 96 well format using Scintillation Proximity Assay (SPA—obtained from Amersham) for measuring incorporation of [γ-33-P]-Adenosine Triphosphate into a test substrate (GST-Retinoblastoma protein; GST-Rb). In each well was placed the compound to be tested (diluted in DMSO and water to correct concentrations) and in control wells either roscovitine as an inhibitor control or DMSO as a positive control. […]
The plates were sealed with Topseal-S plate sealers, left for two hrs then spun at 2500 rpm, 1124×g., for 5 mins. The plates were read on a Topcount for 30 seconds per well. […]
E. coli paste was resuspended in 10 ml/g of NETN buffer (50 mM Tris pH 7.5, 120 mM NaCl, 1 mM EDTA, 0.5% v/v NP-40, 1 mM PMSF, 1 ug/ml leupeptin, 1 ug/ml aprotinin and 1 ug/ml pepstatin) and sonicated for 2×45 seconds per 100 ml homogenate. […] The final product was analysed by Sodium Dodeca Sulfate (SDS) PAGE (Polyacrylamide gel) using 8-16% Tris-Glycine gels (Novex, San Diego, USA).
The open reading frames of CDK2 and Cyclin E were isolated by reverse transcriptase-PCR using HeLa cell and activated T cell mRNA as a template and cloned into the insect expression vector pVL1393 (obtained from Invitrogen 1995 catalogue number: V1392-20). […]
(In general: SPA uses beads or plates that emit light when radiolabelled molecules are held near them.)

In general, IC50 refers to the concentration that inhibits the measured activity by half. `CC(=O)N1CCC(Nc2nccc(-c3cnc(C)n3C(C)C)n2)CC1` [Example 29, 1-[4-[[4-(2-Methyl-3-propan-2-yl-imidazol-4-yl)pyrimidin-2-yl]amino]-1-piperidinyl]ethanone]: the IC50 came out at 95 nM.
